What was measured:
[1] = target: T1, alpha-synucleinopathy of PD brain (Homo sapiens, UniProt P37840); experiment: In vitro autoradiography of [^3H]-2 on PD brain sections with IHC comparison; type: binding; details: PD brain amygdala section, 3 nM radioligand
T1 construct: They are post-mortem tissue from donors with clinical diagnosis of PD or non-PD; tissue Banner Sun Health Institute; Sydney Brain Bank; Analytic Biological Services Inc; Discovery Life Science; host or cells: human PD cerebral cortex homogenates (A4); human PD amygdala cryosections (A5)
Description: (§1) To assess presence of alpha synucleinopathy (Lewy body, LB and Lewy neurites, LN) in the tested human brain samples, the adjacent human PD brain slices were used for Autoradiography (ARG) and Immunihistochemistry (1HC) studies. ARG was done using radio-labelled compounds which bind to LB and LN of PD brain sections. 1HC was performed with antibodies for LB & LN (LB509), Aβ (6E10) and p-tau (AT8). Tissue homogenate binding was performed using human PD brain homogenates of cerebral cortex. Human brains from donor without neurological disorder were used as control in the same study.
The frozen human brain samples of Parkinson's disease (PD) were provided by Banner Sun Health Institute (USA) and Sydney Brain Bank (Australia) through collaboration with Michael J Fox Foundation (MJFF). Additional PD and non-PD brain samples were purchased from vendors (Analytic Biological Services Inc., ABS, and Discovery Life Science, DLS). […] Total binding of radioligand in a brain slice was defined in the absence of competitor, and non-displaceable binding (NDB) was determined in the presence of competitor (1.0 μM unlabeled selfblock). […] After three weeks exposure, the plates were scanned in Amersham Typhoon Imager, and the scanned images were analyzed using MCID 7.1 software. [^3H]-microscales (Amersham Biosciences, GE), were used for quantification of radioligand binding density. […]

[2] = target: human Parkinson's Disease tissue homogenates (Homo sapiens, UniProt P37840); experiment: Hot saturation binding of [^3H]-2 in human PD cerebral cortex homogenates; details: PD Cortex (n = 5)
Description: as §1
The frozen human brain samples of Parkinson's disease (PD) were provided by Banner Sun Health Institute (USA) and Sydney Brain Bank (Australia) through collaboration with Michael J Fox Foundation (MJFF). […]
[^3H]-2 was synthesized by Radio Compound Labelling Synthesis Group at Merck. […] Total binding was defined in the absence of competing compound, and non-displaceable binding was determined in the presence of 1 μM unlabeled self-block. […]
Incubation was carried out at 37° C. for 120 minutes, and then the assay samples were filtered onto GF/C filters using Skatron 12 well harvester, washing on setting 5-5-5 (~3×2 ml) ice cold buffer (Tris, pH 7.5). […] Add liquid scintillation fluid (2 mL Ultima Gold) into each vial, allow to soak into filters for 4 hours and counted in on Perkin Elmer Tri-Carb 2900TR for 1 minute. […]

## [3H]C([3H])([3H])OC[C@H]1CN(c2ncc(C=Cc3ccc(-n4ccnc4)nc3)cn2)CCN1c1ncccn1 [[^3H]-2, [^3H]-(R,E)-5-(2-(6-(1H-imidazol-1-yl)pyridin-3-yl)vinyl)-2-(3-(methoxymethyl)-4-(pyrimidin-2-yl)piperazin-1-yl)pyrimidine]
[1]
  autoradiographic binding versus LB509 and AT8 immunoreactivity: specific binding
[2]
  Bmax: 17.0 ± 5.2 nM
